Source: patent publication US10952940B2, “Reagents and methods for mineralization of tooth enamel” (UNIVERSITY OF WASHINGTON, priority 2016, dated 2021)

Columns and labels:
[1] = Nanoindentation of mineralized layers in cross-section; set-up: species or system human
Text: Similar to SEM specimen preparation, tooth samples were notched from the back of tooth before remineralization, then fractured along the notch. The specimens were then mounted in a room temperature-cure epoxy, and the cross-section of the fracture was polished to 0.1 μm finish using diamond lapping films (Allied High Tech Products Inc., Rancho Dominguez, Calif., USA). Nanoindentation measurements were made using a Triboindentor nanoindentation system (Hysitron Inc., Minneapolis, Minn., USA) in air. Hardness (H) and elastic modulus (Er) were determined by the software accompanying the nanoindentation unit.^40-42 In order to obtain the values that were not indentation volume dependent, maximum indentation depth for all measurements kept at 120±10 nm. All reported H and Er values were averaged over 20 measurements.
Nanoindentation, on the other hand, can handle a much smaller applied load, e.g., in the range of 700 to 800 μN; this range of loads to maintain a nominal total indentation depth of approximately 100 nm (<1 μm in indentation width) reasonable depth for both the WSL and mineralized layer regions. The method provides a dynamic measurement with the indentation system tracking continuously load vs. depth during the indentation process providing a Force-to-depth (F-d) profile of the mechanical response of the sample, including biological hard tissues such as enamel, dentin, and bone. The hardness and elastic modulus were extracted from the linear extrapolation of the unloading curve (see FIG. 14b). Hardness obtained by this method contains partial elastic deformation as well as plastic deformation. With small indentation depth and footprint, indentation characterization of the mineral layer only was possible in cross-section for the group 6 samples where mineral layers were more than 5 μm thick. All other treatment groups, reliable nanoindentation characterization of the layers […] because of the thin, and in some cases, discontinuous natural of the layers. It should also be noted that the nanomechanical properties of the artificially created lesion were also determined, with values similar to those of the mineralized layers. Regardless, the complete nanoindentation values are tabulated in Table 10 where each value represents more than 20 measurements per sample.

[2] = In vitro re-mineralization of tea-stained rat tooth using the peptide solution; details: tea-stained rat tooth quarter; peptide 10 min 37° C., then CaCl2/KH2PO4 16 hours
Experimental: Rat teeth (molars) were obtained from sacrificed rats (for example, Sprague Dawley rats, age 3 weeks or older) from animal facility, collected, and stored in 100% alcohol. Prior to the re-mineralization experiments the teeth were stored in 1% bleach for 24 hours. […] The teeth were then dried in an incubator in air at 37° C. for 3-6 hours to produce dry surface. The root site and section the crown were removed vertically using a diamond blade. Pictures were taken with camera attached to optical microscope. Exposed dentine sites in the one half of the sectioned tooth were etched with 35% phosphoric acid (Ultraetch™) for 60 seconds (to facilitate the stain intake). The etching gel was removed by rinsing the sample with distilled water for 3 minutes. The staining solution was prepared by boiling 2 g of tea in 100 ml of deionized water for 5 minutes, and then cooled down to room temperature and filtered. The tooth sample was soaked in the staining solution and incubated at 37° C. at 150 rpm for 24 hours. The tooth was removed from the staining solution and sonicated for 30 seconds in deionized water (sonic bath) to remove the excess amount of tea particles attached to tooth extrinsically. The one half of the sectioned tooth was cut vertically into half again to form two quarter sections of the tooth. A second set of pictures were taken with camera attached to optical microscope. […]

[3] = In vitro re-mineralization of tea-stained human tooth using the peptide solution, optical images and line profile analysis
Experimental: A caries-free human tooth was sterilized in 1% bleach solution for 24 hours then removed and vigorously rinsed with deionized water. The root site was removed and the crown sectioned vertically using a diamond blade. Pictures were taken with a camera attached to an optical microscope.
The exposed dentine sites were etched with 35% phosphoric acid (Ultraetch™) for 60 seconds (to facilitate the stain intake). The etching gel was removed by rinsing the sample with distilled water for 3 minutes. The staining solution was prepared by boiling 2 g of tea in 100 ml of deionized water for 5 minutes, which was then cooled down to room temperature and filtered. The tooth was soaked in the staining solution and incubated at 37° C. at 150 rpm for 24 hours. The tooth was then removed from the staining solution and sonicated for 30 seconds in deionized water (sonic bath) to remove the excess amount of tea particles attached to tooth extrinsically. The sectioned tooth was cut vertically in half again to form two quarter sections of the tooth. FIGS. 2(a) to 2(g) show various sections of the tooth after the staining. […] Figures (b), (c) and (d) show different views of the left quarter of the tooth that was sectioned from the tooth. […]

[4] = mineralized layer, n ≥ 20, listed as Group 6 (shADP5)
[5] = mineralized layer, n ≥ 20, listed as group 6
[6] = underlying enamel of Group 6 samples

SYENSHSQAINVDRT [shADP5, 15-amino acid long amelogenin-derived peptide, shortened human ADP5]
Elastic Modulus (nanoindentation) [1, 4]: 58.6 ± 4.7 GPa | Hardness (nanoindentation) [1, 4]: 2.23 ± 0.23 GPa | Elastic Modulus (nanoindentation) [1, 5]: 58.6±4.7 GPa | Hardness (nanoindentation) [1, 5]: 2.23±0.23 GPa | Elastic Modulus (nanoindentation) [1, 6]: 55.0 ± 4.6 GPa | Hardness (nanoindentation) [1, 6]: 2.12 ± 0.21 GPa | tooth color compared with control [2]: lighter in color than the control | Mean Pixel Intensity (MPI) compared with original and stained tooth ([3]; ImageJ line profile, after staining and remineralization): higher MPI than the original tooth and the tooth after staining | tooth color compared with control ([3]; tea-stained human tooth quarter, peptide 10 min 37° C., then CaCl2/KH2PO4 16 hours): lighter in color than the left quarter (control)
